Results taken from the NIST ThermoML archive (doi:10.1021/je200800f).
Numbers after ± are expanded uncertainties.

Tests used:
[1] = DTA
[2] = Molar enthalpy of transition or fusion; settings: Crystal; DSC

| SMILES | Normal melting temperature ([1]; Crystal) [°C] | Molar enthalpy of transition or fusion [2] [kcal/mol] | Normal melting temperature ([1]; Crystal 1) [°C] |
| --- | --- | --- | --- |
| O=C(O)CCCC(=O)O [1,5-pentanedioic acid] | 96.0 ± 2 | 5.14 ± 0.215 |  |
| O=C(O)CCCCC(=O)O [1,6-hexanedioic acid] | 153.2 ± 2 | 8.41 ± 0.382 |  |
| O=C(O)CCCCCC(=O)O [1,7-heptanedioic acid] | 104.2 ± 2 | 6.88 ± 0.287 |  |
| CC(C)(CC(=O)O)C(=O)O [2,2-dimethyl-1,4-butanedioic acid] |  | 9.11 ± 0.287 | 138 ± 2 |
| CC(C(=O)O)C(C)C(=O)O (configuration not stated) [2,3-dimethyl-1,4-butanedioic acid] | 119.4 ± 2 | 4.04 ± 0.167 |  |
| CC(CC(=O)O)CC(=O)O [3-methylpentanedioic acid] |  | 7.39 ± 0.287 | 85.5 ± 2 |
